# Test system: Human epidermal melanocytes from dark-pigmented skin
# Experiment: Melanin content in human epidermal melanocytes after 8 days of incubation (absorbance at 405 nm)
# Type: cell-based
# Conditions: for % Pigmentation (percent change of melanin absorbance relative to vehicle control): 8 days of incubation; for Effect on pigmentation, in words: at the concentrations of Table 1
# Procedure: The Compound of Formula (II) was examined for its ability to reduce pigmentation in vitro in human melanocytes. Human epidermal melanocytes from dark-pigmented skin were seeded in 6-well dishes and grown using commercially available Medium 254, a sterile, liquid medium prepared with 200 μM calcium chloride for the culture of human epidermal melanocytes, supplemented with 1% Penicillin/Streptomycin and 1% Human Melanocyte Growth Supplement. Corresponding controls were maintained without histamine, Diphenylhydramine HCl and Compound II. Four replicates were tested for each combination. After 8 days of incubation, melanin was collected and processed by washing the wells with 1× phosphate-buffered saline (PBS), followed by addition of 200 μL of 2M NaOH to three of the four replicates, which are then scraped, pooled and boiled at 80° C. for an hour. Melanin absorption was then measured at 405 nm using a spectrophotometer.
# A larger (positive or negative) percent change indicates a larger increase or reduction in melanin.
SMILES,% Pigmentation (percent change of melanin absorbance relative to vehicle control) (5 μM),"Effect on pigmentation, in words",% Pigmentation (percent change of melanin absorbance relative to vehicle control) (0.0001%),% Pigmentation (percent change of melanin absorbance relative to vehicle control) (0.001%)
"NCCc1c[nH]cn1 [Histamine, reference compound]",58.75%,significant increase in pigmentation,–,–
NC(=O)COc1ccc(C(=O)NCc2ccc(CN3CCCCC3)cc2)cc1 [Compound (II)],–,effective to reduce pigmentation,−28.30%,−75.25%

# Source: patent publication US20160263005A1, “TOPICAL COMPOSITIONS AND METHODS FOR SKIN LIGHTENING” (AVON PRODUCTS, INC., priority 2014, published 2016)
